Measurements reported in patent US10358436B2, “Kinase inhibitors and method of treating cancer” (University Health Network, priority 2010, dated 2019).
Where a name gives a salt, the structure may show the parent alone.

Molecular target: Aurora A (Homo sapiens (Human), UniProt O14965)
Assay: Aurora A inhibition assay (Z-Lyte)
Assay type: biochemical

Chain of Aurora A (O14965 whole entry): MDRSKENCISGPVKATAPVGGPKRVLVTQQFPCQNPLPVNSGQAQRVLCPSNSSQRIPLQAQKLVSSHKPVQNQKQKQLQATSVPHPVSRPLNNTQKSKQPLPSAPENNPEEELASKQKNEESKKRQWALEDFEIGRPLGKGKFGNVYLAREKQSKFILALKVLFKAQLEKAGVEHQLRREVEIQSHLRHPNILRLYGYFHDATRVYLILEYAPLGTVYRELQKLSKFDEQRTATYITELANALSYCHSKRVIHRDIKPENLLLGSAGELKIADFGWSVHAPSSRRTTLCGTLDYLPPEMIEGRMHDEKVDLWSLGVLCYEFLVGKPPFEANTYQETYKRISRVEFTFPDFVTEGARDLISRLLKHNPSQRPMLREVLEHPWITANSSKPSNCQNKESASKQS

Structure (SMILES) | inhibition at 1 µM [%] | IC50 [µM]
COc1ccc2c(c1)[C@]1(C[C@H]1c1ccc3c(-c4ccc(N5CCN(CCO)CC5)cc4)n[nH]c3c1)C(=O)N2 [Example A191, (1R,2S)-2-(3-(4-(4-(2-hydroxyethyl)piperazin-1-yl)phenyl)-1H-indazol-6-yl)-5′-methoxyspiro[cyclopropane-1,3′-indolin]-2′-one 2,2,2-trifluoroacetate] | < 50 | –
COc1ccc2c(c1)[C@]1(C[C@H]1c1ccc3c(-c4ccc(N5CCNCC5)cc4)n[nH]c3c1)C(=O)N2 (relative stereo) [Example A48, (1R*,2S*)-5′-methoxy-2-(3-(4-(piperazin-1-yl)phenyl)-1H-indazol-6-yl)spiro[cyclopropane-1,3′-indolin]-2′-one 2,2,2-trifluoroacetate] | < 50 | –
COc1ccc2c(c1)[C@]1(C[C@H]1c1ccc3c(-c4ccc(CO)cc4)n[nH]c3c1)C(=O)N2 (relative stereo) [Example A45, (1R*,2S*)-2-(3-(4-(hydroxymethyl)phenyl)-1H-indazol-6-yl)-5′-methoxyspiro[cyclopropane-1,3′-indolin]-2′-one 2,2,2-trifluoroacetate] | < 50 | –
COc1ccc2c(c1)[C@]1(C[C@H]1c1ccc3c(/C=C/c4ccc(CN5CCOCC5)cc4)n[nH]c3c1)C(=O)N2 (relative stereo) [Example A41, (1R*,2S*)-(E)-5′-methoxy-2-(3-(4-(morpholinomethyl)styryl)-1H-indazol-6-yl)spiro[cyclopropane-1,3′-indolin]-2′-one 2,2,2-trifluoroacetate] | > 50 | –
COc1ccc2c(c1)[C@]1(C[C@H]1c1ccc3c(/C=C/c4ccc(CN5CCOCC5)cc4)n[nH]c3c1)C(=O)N2C [Example A102, (1R,2S)-(E)-5′-methoxy-1′-methyl-2-(3-(4-(morpholinomethyl)styryl)-1H-indazol-6-yl)spiro[cyclopropane-1,3′-indolin]-2′-one hydrochloride] | > 50 | –
O=C1Nc2ccccc2[C@]12C[C@H]2c1ccc2c(/C=C/c3ccc(N4CCNCC4)cc3)n[nH]c2c1 [Example A92, (1R,2S)-(E)-2-(3-(4-(piperazin-1-yl)styryl)-1H-indazol-6-yl)spiro[cyclopropane-1,3′-indolin]-2′-one bis(2,2,2-trifluoroacetate)] | > 50 | –
O=C1Nc2ccccc2[C@]12C[C@H]2c1ccc2c(/C=C/c3ccc(CN4CCCCC4)cc3)n[nH]c2c1 (relative stereo) [Example A57, (1R*,2S*)-(E)-2-(3-(4-(piperidin-1-ylmethyl)styryl)-1H-indazol-6-yl)spiro[cyclopropane-1,3′-indolin]-2′-one 2,2,2-trifluoroacetate] | > 50 | –
CN(C)Cc1cccc(/C=C/c2n[nH]c3cc([C@@H]4C[C@@]45C(=O)Nc4ccccc45)ccc23)c1 (relative stereo) [Example A162, (1R*,2S*)-(E)-2-(3-(3-((dimethylamino)methyl)styryl)-1H-indazol-6-yl)spiro[cyclopropane-1,3′-indolin]-2′-one 2,2,2-trifluoroacetate] | > 50 | –
Cc1ccc2c(c1)[C@]1(C[C@H]1c1ccc3c(/C=C/c4ccc(CN5CCOCC5)cc4)n[nH]c3c1)C(=O)N2 [Example A195, (1R,2S)-(E)-5′-methyl-2-(3-(4-(morpholinomethyl)styryl)-1H-indazol-6-yl)spiro[cyclopropane-1,3′-indolin]-2′-one 2,2,2-trifluoroacetate] | > 50 | –
COc1ccc2c(c1)[C@]1(C[C@H]1c1ccc3c(-c4ccc(N5CCN(C(C)C)CC5)cc4)n[nH]c3c1)C(=O)N2 (relative stereo) [Example A96, (1R*,2S*)-2-(3-(4-(4-isopropylpiperazin-1-yl)phenyl)-1H-indazol-6-yl)-5′-methoxyspiro[cyclopropane-1,3′-indolin]-2′-one] | < 50 | –
CN(C)Cc1ccc(/C=C/c2n[nH]c3cc([C@@H]4C[C@@]45C(=O)N(CC(N)=O)c4ccccc45)ccc23)cc1 (relative stereo) [Example A160, 2-((1R*,2S*)-(E)-2-(3-(4-((dimethylamino)methyl)styryl)-1H-indazol-6-yl)-2′-oxospiro[cyclopropane-1,3′-indoline]-1′-yl)acetamide 2,2,2-trifluoroacetate] | > 50 | –
Cc1ccc2c(c1)[C@]1(C[C@H]1c1ccc3c(/C=C/c4ccc(CN5CCOCC5)cc4)n[nH]c3c1)C(=O)N2 (relative stereo) [Example A196, (1R*,2S*)-(E)-5′-methyl-2-(3-(4-(morpholinomethyl)styryl)-1H-indazol-6-yl)spiro[cyclopropane-1,3′-indolin]-2′-one 2,2,2-trifluoroacetate] | > 50 | –
CN1CCc2ccc(/C=C/c3n[nH]c4cc([C@@H]5C[C@@]56C(=O)Nc5ccccc56)ccc34)cc2C1 [Example A65, (1R,2S)-2-(3-((E)-2-(2-methyl-1,2,3,4-tetrahydroisoquinolin-7-yl)vinyl)-1H-indazol-6-yl)spiro[cyclopropane-1,3′-indolin]-2′-one 2,2,2-trifluoroacetate salt] | > 50 | –
COc1ccc2c(c1)[C@]1(C[C@H]1c1ccc3c(/C=C/c4ccc(CN5CCCC5)cc4)n[nH]c3c1)C(=O)N2 [Example A83, (1R,2S)-(E)-5′-methoxy-2-(3-(4-(pyrrolidin-1-ylmethyl)styryl)-1H-indazol-6-yl)spiro[cyclopropane-1,3′-indolin]-2′-one 2,2,2-trifluoroacetate] | > 50 | –
COc1ccc2c(c1)[C@]1(C[C@H]1c1ccc3c(/C=C/c4ccc(CN5CCOCC5)s4)n[nH]c3c1)C(=O)N2 [Example A105, (1R,2S)-5′-methoxy-2-(3-((E)-2-(5-(morpholinomethyl)thiophen-2-yl)vinyl)-1H-indazol-6-yl)spiro[cyclopropane-L3′-indolin]-2′-one hydrochloride] | > 50 | –
CN1C(=O)[C@@]2(C[C@H]2c2ccc3c(/C=C/c4ccc(N5CCNCC5)cc4)n[nH]c3c2)c2ccccc21 [Example A90, (1R,2S)-(E)-1′-methyl-2-(3-(4-(piperazin-1-yl)styryl)-1H-indazol-6-yl)spiro[cyclopropane-1,3′-indolin]-2′-one hydrochloride] | > 50 | –
COc1cc2c(cc1OC)[C@]1(C[C@H]1c1ccc3c(/C=C/c4ccc(CN(C)C)cc4)n[nH]c3c1)C(=O)N2 (relative stereo) [Example A168, (1R*,2S*)-(E)-2-(3-(4-((dimethylamino)methyl)styryl)-1H-indazol-6-yl)-5′,6′-dimethoxyspiro[cyclopropane-1,3′-indolin]-2′-one 2,2,2-trifluoroacetate] | < 50 | –
COc1ccc2c(c1)[C@]1(C[C@H]1c1ccc3c(/C=C/c4cc(F)c(CN(C)C)c(F)c4)n[nH]c3c1)C(=O)N2 (relative stereo) [Example A215, (1R*,2S*)-(E)-2-(3-(4-((dimethylamino)methyl)-3,5-difluorostyryl)-1H-indazol-6-yl)-5′-methoxyspiro[cyclopropane-1,3′-indolin]-2′-one 2,2,2-trifluoro acetate] | – | < 0.1
O=C1Nc2ccccc2[C@]12C[C@H]2c1ccc2c(/C=C/c3ccc(CN4CCCC4)cc3)n[nH]c2c1 (relative stereo) [Example A60, (1R*,2S*)-(E)-2-(3-(4-(pyrrolidin-1-ylmethyl)styryl)-1H-indazol-6-yl)spiro[cyclopropane-1,3′-indolin]-2′-one 2,2,2-trifluoroacetate] | > 50 | –
